Measured values as given in US8809359B2, “Phenyl amino pyrimidine bicyclic compounds and uses thereof” (YM Biosciences Australia Pty Ltd, priority 2012, dated 2014).
Like-named read-outs stand apart in the source and are kept apart here.

Assays:
Assay type in all cases: biochemical
[1] = molecular target: TYK2 (Homo sapiens, UniProt P29597); assay: Enzyme screening kinase assay, TYK2
Method: (§1) Kinase assays were performed based on the method reported by Anastassiadis, T; et al Nature Biotechnology (2011); 29 (11); p 1039-p 1045 (doi:10.1038/nbt.2017).

[2] = molecular target: JAK1 (Homo sapiens, UniProt P23458); assay: Enzyme screening kinase assay, JAK1
Method: as §1

[3] = molecular target: JAK2 (Homo sapiens, UniProt O60674); assay: Enzyme screening kinase assay, JAK2
Method: as §1

[4] = molecular target: T1, JAK3 (Homo sapiens, UniProt P52333); assay: Enzyme screening kinase assay, JAK3
T1 sequence (P52333 1-1124): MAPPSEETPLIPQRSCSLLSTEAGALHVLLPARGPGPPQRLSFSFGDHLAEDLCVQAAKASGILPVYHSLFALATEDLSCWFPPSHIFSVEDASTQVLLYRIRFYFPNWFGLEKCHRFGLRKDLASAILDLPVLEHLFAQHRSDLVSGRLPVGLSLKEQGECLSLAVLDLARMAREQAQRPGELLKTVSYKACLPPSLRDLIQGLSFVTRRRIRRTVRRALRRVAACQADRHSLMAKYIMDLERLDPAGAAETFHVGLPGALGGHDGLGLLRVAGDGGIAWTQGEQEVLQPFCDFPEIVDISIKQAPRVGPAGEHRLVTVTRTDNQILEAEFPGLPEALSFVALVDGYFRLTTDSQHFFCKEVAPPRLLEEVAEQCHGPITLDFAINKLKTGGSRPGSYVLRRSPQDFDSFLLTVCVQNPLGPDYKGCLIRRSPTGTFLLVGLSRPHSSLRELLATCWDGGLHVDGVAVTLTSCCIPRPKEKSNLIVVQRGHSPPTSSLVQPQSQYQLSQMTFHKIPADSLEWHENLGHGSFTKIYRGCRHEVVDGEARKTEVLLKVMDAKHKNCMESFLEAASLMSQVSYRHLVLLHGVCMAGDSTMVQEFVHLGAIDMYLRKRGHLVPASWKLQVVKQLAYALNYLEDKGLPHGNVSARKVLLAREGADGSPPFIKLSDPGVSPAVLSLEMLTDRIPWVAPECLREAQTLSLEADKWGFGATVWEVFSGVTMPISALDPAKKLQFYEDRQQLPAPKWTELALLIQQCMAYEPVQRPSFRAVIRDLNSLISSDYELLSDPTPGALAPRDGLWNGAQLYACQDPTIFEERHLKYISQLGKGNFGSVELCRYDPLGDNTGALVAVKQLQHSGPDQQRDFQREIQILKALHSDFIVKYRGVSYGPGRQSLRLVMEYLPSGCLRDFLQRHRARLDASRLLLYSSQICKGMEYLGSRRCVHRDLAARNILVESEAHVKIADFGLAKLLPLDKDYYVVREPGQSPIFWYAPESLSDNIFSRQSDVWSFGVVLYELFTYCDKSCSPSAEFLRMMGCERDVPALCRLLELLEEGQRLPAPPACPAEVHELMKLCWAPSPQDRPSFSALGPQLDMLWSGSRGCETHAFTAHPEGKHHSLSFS
Method: as §1

[5] = Data 1, read-out: TYK2 IC50 Data 1
[6] = Data 2, read-out: TYK2 IC50 Data 2
[7] = Data 1, read-out: JAK1 IC50 Data 1
[8] = Data 2, read-out: JAK1 IC50 Data 2
[9] = Data 1, read-out: JAK2 IC50 Data 1
[10] = Data 2, read-out: JAK2 IC50 Data 2
[11] = Data 1, read-out: JAK3 IC50 Data 1
[12] = Data 2, read-out: JAK3 IC50 Data 2

Sequence of JAK2 (O60674 whole entry): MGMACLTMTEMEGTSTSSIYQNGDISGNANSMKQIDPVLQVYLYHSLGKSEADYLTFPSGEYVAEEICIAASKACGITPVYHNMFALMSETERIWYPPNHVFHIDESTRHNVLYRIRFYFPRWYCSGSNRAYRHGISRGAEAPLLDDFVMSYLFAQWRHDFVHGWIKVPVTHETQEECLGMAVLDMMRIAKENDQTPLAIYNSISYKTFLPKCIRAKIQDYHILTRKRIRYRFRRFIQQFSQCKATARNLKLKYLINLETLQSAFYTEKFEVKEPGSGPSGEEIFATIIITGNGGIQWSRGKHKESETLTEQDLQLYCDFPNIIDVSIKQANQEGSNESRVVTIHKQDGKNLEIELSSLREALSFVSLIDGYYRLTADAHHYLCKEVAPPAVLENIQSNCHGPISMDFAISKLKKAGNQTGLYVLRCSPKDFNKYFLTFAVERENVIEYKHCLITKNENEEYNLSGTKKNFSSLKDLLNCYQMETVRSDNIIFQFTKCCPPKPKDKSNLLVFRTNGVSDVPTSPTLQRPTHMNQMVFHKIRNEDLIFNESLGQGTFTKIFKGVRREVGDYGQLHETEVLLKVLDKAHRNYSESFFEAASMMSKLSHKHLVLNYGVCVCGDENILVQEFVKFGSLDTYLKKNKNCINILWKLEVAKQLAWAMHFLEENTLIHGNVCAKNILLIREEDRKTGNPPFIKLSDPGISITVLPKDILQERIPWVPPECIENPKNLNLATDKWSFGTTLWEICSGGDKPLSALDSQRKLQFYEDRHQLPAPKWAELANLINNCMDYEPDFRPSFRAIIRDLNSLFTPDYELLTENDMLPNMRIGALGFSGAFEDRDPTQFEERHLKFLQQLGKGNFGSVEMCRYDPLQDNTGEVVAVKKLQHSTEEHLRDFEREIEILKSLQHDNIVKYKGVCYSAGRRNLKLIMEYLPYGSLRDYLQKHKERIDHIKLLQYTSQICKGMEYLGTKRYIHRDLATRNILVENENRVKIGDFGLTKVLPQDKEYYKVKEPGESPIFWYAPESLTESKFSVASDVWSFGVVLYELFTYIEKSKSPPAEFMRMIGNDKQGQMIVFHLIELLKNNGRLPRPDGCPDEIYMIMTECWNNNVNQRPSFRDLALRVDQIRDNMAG
Sequence of JAK1 (P23458 whole entry): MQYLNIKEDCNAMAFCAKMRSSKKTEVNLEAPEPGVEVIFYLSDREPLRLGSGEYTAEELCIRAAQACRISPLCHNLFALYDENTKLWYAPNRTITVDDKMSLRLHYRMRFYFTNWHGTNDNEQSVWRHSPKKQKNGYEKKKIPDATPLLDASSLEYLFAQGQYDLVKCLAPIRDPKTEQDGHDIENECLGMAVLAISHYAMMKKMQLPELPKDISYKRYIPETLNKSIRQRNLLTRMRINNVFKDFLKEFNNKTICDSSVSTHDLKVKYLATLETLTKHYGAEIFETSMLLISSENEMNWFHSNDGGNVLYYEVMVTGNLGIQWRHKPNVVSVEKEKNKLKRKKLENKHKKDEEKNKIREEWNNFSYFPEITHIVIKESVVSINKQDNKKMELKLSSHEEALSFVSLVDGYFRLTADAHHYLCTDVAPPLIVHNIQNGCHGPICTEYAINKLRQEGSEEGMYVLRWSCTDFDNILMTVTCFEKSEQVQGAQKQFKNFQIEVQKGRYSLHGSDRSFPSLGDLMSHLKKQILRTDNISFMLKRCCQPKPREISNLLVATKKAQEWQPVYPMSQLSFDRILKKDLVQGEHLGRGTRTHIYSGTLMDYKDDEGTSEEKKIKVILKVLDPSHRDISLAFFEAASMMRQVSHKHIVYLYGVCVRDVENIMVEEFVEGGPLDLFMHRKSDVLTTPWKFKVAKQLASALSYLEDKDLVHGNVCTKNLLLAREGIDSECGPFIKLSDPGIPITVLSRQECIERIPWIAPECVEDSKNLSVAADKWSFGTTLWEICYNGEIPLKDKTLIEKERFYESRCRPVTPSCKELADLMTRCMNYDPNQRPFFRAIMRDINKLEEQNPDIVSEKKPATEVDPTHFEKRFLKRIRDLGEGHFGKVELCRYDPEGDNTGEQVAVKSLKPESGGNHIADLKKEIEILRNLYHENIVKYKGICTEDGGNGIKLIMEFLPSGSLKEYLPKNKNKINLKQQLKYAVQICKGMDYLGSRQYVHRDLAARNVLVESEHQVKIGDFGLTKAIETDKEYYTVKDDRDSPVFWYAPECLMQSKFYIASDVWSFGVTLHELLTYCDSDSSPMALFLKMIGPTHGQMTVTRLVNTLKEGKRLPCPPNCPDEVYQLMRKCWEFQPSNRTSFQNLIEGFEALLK
Sequence of TYK2 (P29597 whole entry): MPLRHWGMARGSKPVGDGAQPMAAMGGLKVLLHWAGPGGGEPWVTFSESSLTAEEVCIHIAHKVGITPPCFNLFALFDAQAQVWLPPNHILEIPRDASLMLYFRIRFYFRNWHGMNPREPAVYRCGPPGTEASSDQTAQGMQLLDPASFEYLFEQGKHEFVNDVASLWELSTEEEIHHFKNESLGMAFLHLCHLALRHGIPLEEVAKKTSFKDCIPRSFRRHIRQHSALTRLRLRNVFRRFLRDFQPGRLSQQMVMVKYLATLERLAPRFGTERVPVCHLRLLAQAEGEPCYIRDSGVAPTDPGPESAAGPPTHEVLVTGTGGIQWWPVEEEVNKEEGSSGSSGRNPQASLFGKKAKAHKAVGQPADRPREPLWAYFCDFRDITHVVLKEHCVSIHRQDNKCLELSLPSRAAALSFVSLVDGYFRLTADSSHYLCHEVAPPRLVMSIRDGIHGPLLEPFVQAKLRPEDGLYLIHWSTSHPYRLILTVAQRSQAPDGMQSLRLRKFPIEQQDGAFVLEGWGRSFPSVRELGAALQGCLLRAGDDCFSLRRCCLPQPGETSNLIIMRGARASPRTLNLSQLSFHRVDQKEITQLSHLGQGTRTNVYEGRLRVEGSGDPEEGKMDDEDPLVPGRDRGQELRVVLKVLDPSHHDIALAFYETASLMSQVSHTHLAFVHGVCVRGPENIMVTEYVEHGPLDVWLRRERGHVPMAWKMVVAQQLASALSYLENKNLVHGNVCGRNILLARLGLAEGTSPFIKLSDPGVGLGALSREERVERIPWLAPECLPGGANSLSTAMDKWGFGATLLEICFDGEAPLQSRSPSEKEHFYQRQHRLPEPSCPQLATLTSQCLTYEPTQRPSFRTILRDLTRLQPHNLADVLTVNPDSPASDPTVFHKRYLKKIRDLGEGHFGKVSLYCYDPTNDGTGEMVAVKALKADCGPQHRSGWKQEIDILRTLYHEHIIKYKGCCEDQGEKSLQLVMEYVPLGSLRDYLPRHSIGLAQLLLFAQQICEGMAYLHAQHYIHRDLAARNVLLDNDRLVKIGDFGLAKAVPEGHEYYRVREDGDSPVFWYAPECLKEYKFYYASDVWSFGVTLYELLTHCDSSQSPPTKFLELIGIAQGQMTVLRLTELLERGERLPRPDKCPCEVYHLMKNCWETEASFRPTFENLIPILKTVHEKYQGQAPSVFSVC

Work on `N#CCNC(=O)c1ccc(-c2ccnc(Nc3ccc(N4CC5(CCO5)C4)cc3)n2)cc1` [Compound 1, 4-(2-((4-(1-oxa-6-azaspiro[3.3]heptan-6-yl)phenyl)amino)pyrimidin-4-yl)-N-(cyanomethyl)benzamide] yielded an IC50 [1, 5] of 38 nM, an IC50 [1, 6] of 35 nM and an IC50 [2, 7] of 224 nM. The IC50 [2, 8] was 215 nM, the IC50 [3, 9] was 108 nM and the IC50 [3, 10] was 103 nM. For the same molecule, the IC50 [4, 11] was 213 nM and the IC50 [4, 12] was 194 nM.
Molecule `N#CCNC(=O)c1ccc(-c2ccnc(Nc3ccc(N4CCC5(CCO5)CC4)cc3)n2)cc1` [Compound 2, 4-(2-((4-(1-oxa-7-azaspiro[3.5]nonan-7-yl)phenyl)amino)pyrimidin-4-yl)-N-(cyanomethyl)benzamide] has an IC50 [1, 5] of 5.09 nM, an IC50 [1, 6] of 5.65 nM and an IC50 [2, 7] of 30.6 nM. The IC50 [2, 8] was 37.9 nM, the IC50 [3, 9] was 22.2 nM and the IC50 [3, 10] was 24.5 nM. It also gave an IC50 [4, 11] of 41.8 nM and an IC50 [4, 12] of 44.8 nM.
In the case of `N#CCNC(=O)c1ccc(-c2ccnc(Nc3ccc(N4CCC[C@]5(CCO5)C4)cc3)n2)cc1` [Compound 5, (S)-4-(2-((4-(1-oxa-6-azaspiro[3.5]nonan-6-yl)phenyl)amino)pyrimidin-4-yl)-N-(cyanomethyl)benzamide], the IC50 [1, 5] is reported as 0.69 nM, the IC50 [1, 6] is reported as 0.91 nM and the IC50 [2, 7] is reported as 10.1 nM. It also gave an IC50 [2, 8] of 10.2 nM, an IC50 [3, 9] of 30 nM and an IC50 [3, 10] of 25.9 nM. For the same molecule, the IC50 [4, 11] was 60.9 nM and the IC50 [4, 12] was 56.3 nM.
`N#CCNC(=O)c1ccc(-c2ccnc(Nc3ccc(N4CC[C@@]5(CCO5)C4)cc3)n2)cc1` [Compound 8, (R)-4-(2-((4-(1-oxa-6-azaspiro[3.4]octan-6-yl)phenyl)amino)pyrimidin-4-yl)-N-(cyanomethyl)benzamide] showed an IC50 [1, 5] of 9.98 nM, an IC50 [1, 6] of 9.98 nM and an IC50 [2, 7] of 56.9 nM. It also gave an IC50 [2, 8] of 35.7 nM, an IC50 [3, 9] of 43.5 nM and an IC50 [3, 10] of 46.4 nM. The IC50 [4, 11] was 79.3 nM and the IC50 [4, 12] was 78.5 nM.
`N#CCNC(=O)c1ccc(-c2ccnc(Nc3ccc(N4CC5CC(C4)O5)cc3)n2)cc1` [Compound 3, 4-(2-((4-(6-oxa-3-azabicyclo[3.1.1]heptan-3-yl)phenyl)amino)pyrimidin-4-yl)-N-(cyanomethyl)benzamide] was tested, and the IC50 [1, 5] was 6.83 nM, the IC50 [1, 6] was 7.3 nM and the IC50 [2, 7] was 32.3 nM. For the same molecule, the IC50 [2, 8] was 41.7 nM, the IC50 [3, 9] was 47 nM and the IC50 [3, 10] was 45 nM. It also gave an IC50 [4, 11] of 80.1 nM and an IC50 [4, 12] of 82.4 nM.
With `N#CCNC(=O)c1ccc(-c2ccnc(Nc3ccc(N4CC[C@]5(CCO5)C4)cc3)n2)cc1` [Compound 7, (S)-4-(2-((4-(1-oxa-6-azaspiro[3.4]octan-6-yl)phenyl)amino)pyrimidin-4-yl)-N-(cyanomethyl)benzamide] the IC50 [1, 5] was 4.87 nM, the IC50 [1, 6] was 4.29 nM and the IC50 [2, 7] was 31.5 nM. For the same molecule, the IC50 [2, 8] was 29.2 nM, the IC50 [3, 9] was 30.3 nM and the IC50 [3, 10] was 34 nM. The IC50 [4, 11] was 60.9 nM and the IC50 [4, 12] was 50.8 nM.
In the case of `N#CCNC(=O)c1ccc(-c2ccnc(Nc3ccc(N4CC5(COC5)C4)cc3)n2)cc1` [Compound 11, 4-(2-((4-(2-oxa-6-azaspiro[3.3]heptan-6-yl)phenyl)amino)pyrimidin-4-yl)-N-(cyanomethyl)benzamide], the IC50 [1, 5] is reported as 9.47 nM, the IC50 [1, 6] is reported as 8.54 nM and the IC50 [2, 7] is reported as 32.8 nM. It also gave an IC50 [2, 8] of 47.4 nM, an IC50 [3, 9] of 10.6 nM and an IC50 [3, 10] of 10.8 nM. The IC50 [4, 11] was 33.8 nM and the IC50 [4, 12] was 26.3 nM.
With `N#CCNC(=O)c1ccc(-c2ccnc(Nc3ccc(N4CC5CCC(C4)O5)cc3)n2)cc1` [Compound 4, 4-(2-((4-(8-oxa-3-azabicyclo[3.2.1]octan-3-yl)phenyl)amino)pyrimidin-4-yl)-N-(cyanomethyl)benzamide] the IC50 [1, 5] was 5.22 nM, the IC50 [1, 6] was 6.17 nM and the IC50 [2, 7] was 28.8 nM. The IC50 [2, 8] was 28.6 nM, the IC50 [3, 9] was 29.3 nM and the IC50 [3, 10] was 29.1 nM. For the same molecule, the IC50 [4, 11] was 92.3 nM and the IC50 [4, 12] was 80.8 nM.
In the case of `N#CCNC(=O)c1ccc(-c2ccnc(Nc3ccc(N4C[C@@H]5C[C@H]4CO5)cc3)n2)cc1` [Compound 9, 4-(2-((4-((1S,4S)-2-oxa-5-azabicyclo[2.2.1]heptan-5-yl)phenyl)amino)pyrimidin-4-yl)-N-(cyanomethyl)benzamide], the IC50 [1, 5] is reported as 8.07 nM, the IC50 [1, 6] is reported as 7.4 nM and the IC50 [2, 7] is reported as 22.4 nM. It also gave an IC50 [2, 8] of 21.7 nM, an IC50 [3, 9] of 11.1 nM and an IC50 [3, 10] of 13.4 nM. For the same molecule, the IC50 [4, 11] was 12.8 nM and the IC50 [4, 12] was 14 nM.
Molecule `N#CCNC(=O)c1ccc(-c2ccnc(Nc3ccc(N4CCC[C@@]5(CCO5)C4)cc3)n2)cc1` [Compound 6, (R)-4-(2-((4-(1-oxa-6-azaspiro[3.5]nonan-6-yl)phenyl)amino)pyrimidin-4-yl)-N-(cyanomethyl)benzamide] has an IC50 [1, 5] of 2.94 nM, an IC50 [1, 6] of 2.14 nM and an IC50 [2, 7] of 17.5 nM. It also gave an IC50 [2, 8] of 19.8 nM, an IC50 [3, 9] of 14.2 nM and an IC50 [3, 10] of 14.1 nM. For the same molecule, the IC50 [4, 11] was 33.4 nM and the IC50 [4, 12] was 32.7 nM.
`N#CCNC(=O)c1ccc(-c2ccnc(Nc3ccc(N4C[C@H]5C[C@@H]4CO5)cc3)n2)cc1` [Compound 10, 4-(2-((4-((1R,4R)-2-oxa-5-azabicyclo[2.2.1]heptan-5-yl)phenyl)amino)pyrimidin-4-yl)-N-(cyanomethyl)benzamide] gave an IC50 [1, 5] of 4.31 nM, an IC50 [1, 6] of 2.58 nM and an IC50 [2, 7] of 16 nM. For the same molecule, the IC50 [2, 8] was 15.9 nM, the IC50 [3, 9] was 17 nM and the IC50 [3, 10] was 16.8 nM. It also gave an IC50 [4, 11] of 22.1 nM and an IC50 [4, 12] of 27 nM.
